Drawing on PubChem BioAssay (NCI), this text covers GI50 and TGI for 38 compounds.

In general, GI50 refers to the concentration at which growth is held to half of that of the control. One may read the TGI as the concentration giving total growth inhibition. Lower therefore signals greater sensitivity of the cells.

The subject of this assay is MDA-MB-468 breast. Kind of assay: DTP human tumour cell line panel, 48 h.

Several values for one entry are separate records, joined by “and”; a condition that tells them apart may be missing. Equal entries are not always repeated.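 48-hour exposure; five concentrations; linearly interpolated endpoints. Here, GI50 denotes the concentration required for 50% inhibition of growth. The concentration for full growth arrest is given as TGI.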

Take `Oc1cccc2c1NCCC2`: the GI50 was 1830 nM and the TGI was 8490 nM. As to `CN1CCN(CCCCCN=c2cc3c(=O)n(CCCCCN4CCN(C)CC4)c(=O)c4c(NCCCCCN5CCN(C)CC5)cc5c(O)n(CCCCCN6CCN(C)CC6)c(=O)c2c5c4-3)CC1`, the GI50 is 2260 nM and the concentration for total growth inhibition (TGI) came out at 6310 nM.

As to `COc1ccc2c(c1)C(=O)c1c-2c(OCCN(C)C)nc2ccccc12`, the GI50 is 2760 nM and the total growth inhibition concentration (TGI) is 11300 nM.

As to `Cc1[nH]c(-c2cc(N)ccc2Cl)c2c1C(=O)CCCC2`, the GI50 is 1900 nM and the total growth inhibition concentration (TGI) amounted to 9460 nM. Take `C[C@@H]1Cc2cc(O)ccc2[C@H]2CC[C@]3(C)/C(=C/COCCN(C)C)CC[C@H]3[C@H]12` (tested in a mixture with another compound): the GI50 was 1070 nM and the concentration for total growth inhibition (TGI) turned out to be 3200 nM. On to `CN1CCc2nc3sc(C(N)=O)c(N)c3c(-c3cccs3)c2C1`, for which the GI50 is 1750 nM and the TGI is 4860 nM.

On to `CC1c2ccccc2CCN1c1ccc(CO)c(Cl)c1` (stereo not given), for which the GI50 was 15.1 nM and the TGI is 39.3 nM. Take `COc1cc(/C=C/c2ccc3c(Br)cc(Br)c(O)c3n2)ccc1O`: the GI50 is 1380 nM and the TGI worked out at 5290 nM.

With `O=C(Nc1ccccc1OC(=O)c1ccccc1)c1ccccc1`, the GI50 was 5640 nM and the total growth inhibition concentration (TGI) was over 100000 nM.

For the compound `COc1ccc(Nc2ccnc(N3CCN(c4ccnc5cc(Cl)ccc45)CC3)n2)cc1`, the GI50 was 1500 nM and the TGI is over 100000 nM. Turning to `CC1C=CC(OC(=O)C(C)(O)CCC(O)(C(=O)OC2CC(O)C(C(C)C)CC2(C)O)C(C)C)(C(C)C)CC1` (stereo not given), the concentration for 50% growth inhibition (GI50) is 360 nM and the total growth inhibition concentration (TGI) was found to be 1220 nM. As to `N#CCCNc1nonc1-c1nc2ccccc2n1CC(=O)c1ccc(NC(=O)[C@@H](N)CCCCN)cc1`, the 50% growth inhibitory concentration (GI50) is 23.6 nM. For the compound `CCOC(=O)c1c(NC(=O)c2cccc(C(F)(F)F)c2)sc2c3c(ccc12)OCN(C)C3`, the GI50 is 1520 nM and the total growth inhibition concentration (TGI) was found to be 2970 nM. On the same counts, the results for `COc1cc(C(=O)Nc2cc(O)c(CC=C(C)C)c(O)c2)cc2c1O[C@]1(C)CC[C@@H](O)C(C)(C)[C@H]1C2` are 648 nM and 32900 nM. On the same counts, the results for `O=C1C(OCCOc2ccccc2)=C(OCCOc2ccccc2)C(=O)c2ccccc21` are 9920 nM and over 100000 nM. Take `FC(F)(F)c1cccc(-c2nn3ncccc3c2-c2ccnc(Nc3ccc4c(c3)OCCO4)n2)c1`: the GI50 was 3970 nM and the total growth inhibition concentration (TGI) worked out at 17900 nM. On to `COc1ccc(Nc2ccc([N+](=O)[O-])cc2[N+](=O)[O-])cc1CN(CCCl)CCCl`, for which the GI50 is 1990 nM and the total growth inhibition concentration (TGI) amounted to 5090 nM. For `COc1cc2c(cc1F)C(c1ccccc1Cl)=Nc1c(n[nH]c1C)N2`, in that order: 342 nM and 3730 nM. For `N/C(=N\OC(=O)c1ccccc1)C(Cc1ccccc1)C(=O)NOC(=O)c1ccccc1` (stereo not given), in that order: 4100 nM and 17500 nM. Turning to `O=C(CN1N=C(c2ccc(F)cc2)CCC1=O)Nc1nc2ccccc2s1`, the GI50 was 21100 nM and the concentration for total growth inhibition (TGI) turned out to be 85900 nM. On to `O=Nc1c(-c2c(O)[nH]c3ncccc23)[nH]c2ccccc12`, for which the GI50 is 4120 nM and the concentration for total growth inhibition (TGI) is over 100000 nM. `COc1cccc(Oc2ccccc2NC(=O)CNC(=O)c2cccc3ccccc23)c1`: the 50% growth inhibitory concentration (GI50) was 331 nM and the TGI was over 25000 nM. On to `Oc1c(-c2cc(C(F)(F)F)[nH]n2)cc(Cl)c(OCc2ccc(Cl)cc2)c1-c1ccc(Cl)c(C(F)(F)F)c1`, for which the GI50 was 208 nM and the TGI came to 1660 nM.

With `CC(C)C[C@H](NC(=O)CCn1ccc2ccccc2c1=O)B(O)O`, the GI50 is 1380 nM and the TGI came out at 7080 nM.

Consider `CCc1c(C)nc2sc3c(N)ncnc3c2c1C`, for which the GI50 is over 25000 nM and the TGI is over 25000 nM. For the compound `c1ccc(N=C2c3ccsc3C(=Nc3ccccc3)c3ccsc32)cc1`, the GI50 was 1780 nM and the concentration for total growth inhibition (TGI) came out at 3610 nM. For `O=C(CSc1nnc(-c2ccc(Cl)cc2)n1-c1ccccc1)Nc1ccc(Cl)cc1`, the GI50 is 2830 nM and the concentration for total growth inhibition (TGI) was 8270 nM.

For `COc1ccc2c(-c3ccnc(Nc4cccc(OC(F)(F)F)c4)n3)cnn2n1`, the GI50 was 1260 nM and the TGI is 4690 nM. For the compound `COc1ccc(/C=C(/C)[N+](=O)[O-])cc1OC`, the GI50 was 1340 nM and 1150 nM; the TGI is 2770 nM and 2530 nM. Turning to `COc1ccc(/C=C(\C)[N+](=O)[O-])cc1OC`, the GI50 was 1480 nM and the TGI was found to be 3050 nM. In the case of `O=c1c2cc(F)ccc2sc2c(NCCCNCCO)nc3ccccc3c12`, the GI50 is 1090 nM and the TGI was 2430 nM. For `CCN1C(=O)N(CC)C2C1NN=c1s/c(=C\c3ccc(F)cc3)c(=O)n12` (stereo not given), in that order: 168 nM and over 100000 nM. For `C=CCc1cc(Nc2c3ccc(Cl)cc3nc3ccc(OC)cc23)cc(CN(CC)CC)c1O`, in that order: 546 nM and 3240 nM.

Consider `Nc1n[nH]c2ccc([C@@H]3Nc4cc5c(cc4[C@H]4C6CCC(C6)[C@@H]34)C(=O)NC5)cc12` (stereo not given in full), for which the GI50 is 323 nM and the total growth inhibition concentration (TGI) is over 100000 nM. On the same counts, the results for `COc1cc(-c2nn(-c3cccc(NC(=O)CCN4CCN(Cc5ccccc5)CC4)c3)cc2-c2ccncc2)ccc1Cl` are 433 nM and 16200 nM. Take `Cc1ccncc1C(N)=O`: the GI50 was over 100000 nM and the TGI is over 100000 nM. For the compound `COc1cc(C(=O)c2cc(C)c3[nH]c4ccc(O)cc4c3c2C)cc(OC)c1OC`, the GI50 is under 15.7 nM and the TGI turned out to be 1060 nM. As for `C[n+]1c2ccccc2nc2c(N)cc(N)cc21`, the GI50 was 1180 nM and the TGI came to 4980 nM.
